These results are taken from US6319702A, “Nucleic acids encoding mutant human carboxypeptidase A enzymes” (Glaxo Wellcome, Inc., priority 1993, dated 2001).

Data set [1] addresses T1, wild type human carboxypeptidase A1 (Homo sapiens, UniProt P15085).
T1 sequence (P15085 111-419): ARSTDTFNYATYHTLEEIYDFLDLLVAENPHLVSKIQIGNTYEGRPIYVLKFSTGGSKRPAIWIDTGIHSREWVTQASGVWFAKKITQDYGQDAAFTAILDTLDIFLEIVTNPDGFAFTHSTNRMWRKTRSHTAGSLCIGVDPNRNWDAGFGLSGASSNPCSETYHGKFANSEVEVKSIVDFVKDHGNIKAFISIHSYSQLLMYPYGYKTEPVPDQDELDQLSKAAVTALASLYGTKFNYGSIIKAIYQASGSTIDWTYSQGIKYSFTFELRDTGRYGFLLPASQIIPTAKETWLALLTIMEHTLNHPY
Nature of the data set: Enzyme kinetics of prodrugs with wild type human carboxypeptidase A1 (coupled assay). Format: biochemical. From the text:
(§1) As indicated herein, the in vivo stable prodrug of the present invention should be a better substrate for a mutant enzyme than the corresponding wild type enzyme in order for the stable prodrug to be activated selectively at the tumour. […] The most relevant kinetic constant in the table is the kcat/Km, which provides an estimate of the second order rate constant for the enzyme catalyzed conversion of prodrug to methotrexate. Thus, the larger the kcat/Km, the more efficient the enzyme with a particular substrate. […] Thus, the single mutation at 268 from thr to gly converted very poor substrates in the wild type enzyme to excellent substrates in the mutant enzyme. […] Thus, the compounds are much better substrates for the mutant enzyme than the wild type enzyme which permits very specific tumor targeted activation of the nontoxic, stable prodrug to the active agent.
(§2) Kinetics were determined by a modification of the coupled assay of Kuefner, et al (1989) Biochemistry 28 2288-2297 in which the product MTX is converted by excess carboxypeptidase G to the pteroate of MTX. In this assay the reaction is followed spectrophotometrically at 315 nm; at this wavelength the change in molar absorbtivity for the coupled reaction was determined to be 9.57 mM^-1 cm^-1. Assays were performed at 25° C. in 25 mM tris-HCl, 100 mM NaCl, pH 7.4. Prodrugs were preincubated at 25° C. with buffer and 17 milliunits of Sigma #C-9658 carboxypeptidase G in 1 ml total volume. Assay was initiated with carboxypeptidase A or the appropriate mutant. Initial velocities were obtained, and standard Michaelis-Menten calculations were used to determine kinetic constants (in Biochemistry, Lehninger, A. L. 1970, Worth Publishers, Inc, NY).

Data set [2] has as its system 268ala. Nature of the data set: Enzyme kinetics of prodrugs with 268ala mutant of human CPA1 (coupled assay). In kind it is biochemical. The settings on record: 25° C., pH 7.4.
Source text: as §1, §2

The test system of data set [3] is 268gly. Nature of the data set: Enzyme kinetics of prodrugs with 268gly mutant of human CPA1 (coupled assay). In kind it is biochemical.
Source text: as §1, §2

The conditions of data set [4]: mouse, in vivo, iv.
Data set [5] is described as follows: in vivo. The settings on record: mouse, iv.
Data set [6] in a line: Prodrug toxicity, maximum tolerated dose. To be noted: Swiss nu/nu mice, IV daily for 5 days.
Data set [7] can be described thus: IEF of proCPA and mature CPA. Format: physicochemical. The procedure: The final OD600 was 14. […] All subsequent buffers contained 0.1 mM Zn-acetate. […] Total protein=368 mg.
Substrate in data set [8]: CN(Cc1cnc2nc(N)nc(N)c2n1)c1ccc(C(=O)N[C@@H](CCC(=O)O)C(=O)N[C@@H](Cc2ccccc2)C(=O)O)cc1
Put plainly: Enzyme kinetics of prodrugs with wild type human carboxypeptidase A1 (coupled assay). In kind it is biochemical. To be noted: other: Human CPA1, 25° C., pH 7.4.
Source text: as §1
(§3) Kinetics were determined by a modification of the coupled assay of Kuefner, et al (1989) Biochemistry 28 2288-2297 in which the product MTX is converted by excess carboxypeptidase G to the pteroate of MTX. In this assay the reaction is followed spectrophotometrically at 315 nm; at this wavelength the change in molar absorbtivity for the coupled reaction was determined to be 9.57 mM^-1 cm^-1. Assays were performed at 25° C. in 25 mM tris-HCl, 100 mM NaCl, pH 7.4. […]

Substrate in data set [9]: CN(Cc1cnc2nc(N)nc(N)c2n1)c1ccc(C(=O)N[C@@H](CCC(=O)O)C(=O)N[C@@H](Cc2ccccc2C2CCCC2)C(=O)O)cc1
Described as above. In kind it is biochemical. To be noted: other: Human CPA1, 25° C., pH 7.4.
Source text: as §1, §3

A word on the Km: it is the concentration of substrate that gives half-maximal velocity. As usually defined, the kcat is the number of substrate molecules converted per active site and unit of time at saturation. As usually defined, the kcat/Km is the second-order rate constant that governs catalysis at low substrate concentration.

As to `CN(Cc1cnc2nc(N)nc(N)c2n1)c1ccc(C(=O)N[C@@H](CCC(=O)O)C(=O)N[C@@H](Cc2cccc(C3CCC3)c2)C(=O)O)cc1`, in data set [1], the “human CPA catalyzed reaction (in words)” value was “not measureable” and the “kcat/Km for human CPA1 compared with that of the L-phenylalanine prodrug (in words)” value is given as “much lower”. The “kcat (symbol ND)” value in data set [1] (Human CPA1, rate too slow to assay) is “ND (not determined; rate to slow assay. kcat ≤ 0.0005/sec.)”. Further, in [2], the Km was found to be 160 µM and the kcat came to 0.12 s⁻¹. Moreover, in [3] (268Gly), the kcat/Km came to 1.8e+06 M⁻¹ s⁻¹. The “activity of 268Gly relative to CPA1 with the L-phenylalanine prodrug of MTX” value in data set [3] (268Gly with prodrug vs human CPA1 with L-phenylalanine prodrug) came out at 4 times. In [3] (268gly, 25° C., pH 7.4), the Km was determined as 1.8 µM and the catalytic constant (kcat) amounted to 3 s⁻¹. The “dose showing some toxicity” value in data set [4] worked out at 30 mg/kg. Also, the MTD in [5] is < 30 mg/kg.

As to `CN(Cc1cnc2nc(N)nc(N)c2n1)c1ccc(C(=O)N[C@@H](CCC(=O)O)C(=O)O)cc1` [methotrexate, reference compound], the MTD in data set [5] amounted to 4 mg/kg. Further, in [6], the “maximum tolerated dose (MTD)” value worked out at 2.5 mg/kg.

B1: wild type human carboxypeptidase A1 (Homo sapiens) (protein)
chain: T1 sequence (P15085 111-419)
Turning to B1, in data set [7], the pI is reported as 6.2. For the same molecule, the Km in data set [8] is 4.3 µM; in [9], 61 µM.

B2: proCPA: procarboxypeptidase A, cleaved to mature CPA with trypsin (protein, UniProt P15085 17-419, looked up)
pro-form: KEDFVGHQVLRISVADEAQVQKVKELEDLEHLQLDFWRGPAHPGSPIDVRVPFPSIQAVKIFLESHGISYETMIEDVQSLLDEEQEQMFAFRSRARSTDTFNYATYHTLEEIYDFLDLLVAENPHLVSKIQIGNTYEGRPIYVLKFSTGGSKRPAIWIDTGIHSREWVTQASGVWFAKKITQDYGQDAAFTAILDTLDIFLEIVTNPDGFAFTHSTNRMWRKTRSHTAGSLCIGVDPNRNWDAGFGLSGASSNPCSETYHGKFANSEVEVKSIVDFVKDHGNIKAFISIHSYSQLLMYPYGYKTEPVPDQDELDQLSKAAVTALASLYGTKFNYGSIIKAIYQASGSTIDWTYSQGIKYSFTFELRDTGRYGFLLPASQIIPTAKETWLALLTIMEHTLNHPY
modifications: pro-form
notes: procarboxypeptidase A, cleaved to mature CPA with trypsin
Take B2: in data set [7], the pI worked out at 4.75.
